According to patent US20230286998A1, “SUCCINATE SALTS OF OCTAHYDROTHIENOQUINOLINE COMPOUND AND CRYSTALS THEREOF” (KISSEI PHARMACEUTICAL CO., LTD., priority 2020, published 2023):
“Also recorded” adds a separate entry of the source. Structures can show the parent of a compound that is named as a salt.

Tests used:
Format in all cases: physicochemical
[1] = Stability Test 1: storage under an open condition at 60° C. (powder X-ray diffraction, HPLC related substances, appearance); conditions: 2 months; for Increased Amount of related substance: HPLC area normalization; for Change of Crystal form: powder X-ray diffraction
Description: (§1) The Form I crystal of the salt (A-1), the Form I crystal of the salt (A-2), the crystal of hydrochloric acid of the compound (B), the crystal of sebacate salt of the compound (B) and the crystal of adipate salt were stored under an open condition at 60° C., and the physical stability and the chemical stability of each crystal form were examined. The powder X-ray diffractions of the samples at the start of the specimens and 2 months later were measured in the same manner as in Test Example 1, and the physical stability of the crystal forms and the amounts of the related substances were measured using the following HPLC measurement conditions, thereby observing the chemical stability. At the same time, changes in appearance were also observed.
(§2) • Detector: Ultraviolet and visible absorptiometer/wavelength: 225 nm • Column: L-column2 ODS, 3 μm, 4.6×150 mm (manufactured by Chemicals Evaluation and Research Institute, Japan) • Column temperature: constant temperature around 30° C. • Flow rate: 1.0 mL/min • Mobile phase A: a solution (pH 6.9) in which potassium dihydrogen phosphate and dipotassium hydrogen phosphate are mixed in water so as to be each 10 mmol/L • Mobile phase B: acetonitrile • Mobile phase ratios • 0 to 25 minutes: mobile phase A/mobile phase B=79/21 • 25 to 45 minutes: mobile phase A/mobile phase B=79/21 to 25/75 (Gradient) • 45 to 50 minutes: mobile phase A/mobile phase B=25/75 • Injection volume: 5 μL • Sample cooler: 4° C. • Dissolution solvent: A mixed solution prepared by adding 20 parts of acetonitrile to 80 parts of a 20 mmol/L potassium dihydrogen phosphate aqueous solution adjusted to pH 3. • Sample solution: A liquid obtained by dissolving the specimen in the dissolution solvent and adjusting to about 1.0 mg/mL as the compound (B).
(§3) Excluding the peaks derived from the blank, the peak areas of the respective peaks were measured by an automatic integration method, and the values thereof were determined by an area normalization method.

[2] = Stability Test 2: storage under an open condition at 40° C. and 75% relative humidity (powder X-ray diffraction, HPLC related substances, appearance); conditions: 2 months; for Increased Amount of related substance: HPLC area normalization; for Change of Crystal form: powder X-ray diffraction
Description: as §1, with “hydrochloride salt” for “hydrochloric acid”, “40° C. and 75% relative humidity,” for “60° C.,”
as §2, with “a 10” for “a 20”
as §3

[3] = Water adsorption and desorption test (IGA-Sorp); conditions: 25° C.
Description: The water adsorption and desorption behaviors of the Form I crystal of the salt (A-1), the crystal of hydrochloride salt of the compound (B) and the crystal of sebacate salt of the compound (B) were measured using IGA-Sorp (manufactured by HIDEN isochema) under the following conditions. The water adsorption and desorption isotherm of the Form I crystal of the salt (A-1) is shown in FIG. 11, and the water adsorption and desorption isotherm of hydrochloride salt of the compound (B) is shown in FIG. 12.
• Form I crystal of salt (A-1): 14.7 mg • Crystal of hydrochloride salt of compound (B): 10.4 mg • Crystal of sebacate salt of compound (B): 13.2 mg
Each specimen was placed in a water adsorption and desorption measurement device. The temperature and the humidity were set to 25° C./40% RH or 50% RH, and equilibration was conducted for 60 minutes or more to stabilize the mass.
The mass of each specimen subjected to mass equilibration was continuously measured while changing the relative humidity at every 5% RH in adsorption and desorption.
The mass % was expressed as a mass percentage of a mass change before and after adsorption (or desorption) based on a dry sample.

[4] = listed as Forn I crystal of the salt (A-2), Monosuccinate Salt

CCCN(C(=O)NCCN(C)C)C(=O)[C@@H]1C[C@@H]2Cc3c(sc(N)c3C#N)C[C@H]2N(C)C1 [Form I crystal of the salt (A-1), 1-{[(4aR,6R,8aR)-2-Amino-3-cyano-8-methyl-4,4a,5,6,7,8,8a,9-octahydrothieno[3,2-g]quinolin-6-yl]carbonyl}-3-[2-(dimethylamino)ethyl]-1-propylurea Sesquisuccinate Monohydrate]
chemical stability (in words) [1]: chemically stable | Increased Amount of related substance [1]: No increase | Appearance ([1]; Sesquisuccinate Monohydrate): almost no change in appearance; also recorded: White (A slight coloration | Change of Crystal form ([1]; Sesquisuccinate Monohydrate): No change in crystal form | chemical stability (in words) [2]: chemically stable | Increased Amount of related substance [2]: +0.01% | Appearance ([2]; Sesquisuccinate Monohydrate): no change in appearance; also recorded: No change in white | Change of Crystal form ([2]; Sesquisuccinate Monohydrate): No change in crystal form | Change of water amount at adsorption ([3]; 50-90% RH, based on a dry sample): 0.3 mass % | Change of water amount at desorption ([3]; 90-0% RH, based on a dry sample): 0.8 mass % | hygroscopicity (in words) ([3]; water adsorption and desorption): does not exhibit hygroscopicity

CCCN(C(=O)NCCN(C)C)C(=O)[C@@H]1C[C@@H]2Cc3c(sc(N)c3C#N)C[C@H]2N(C)C1.O=C(O)CCC(=O)O [Form I crystal of the salt (A-2), 1-{[(4aR,6R,8aR)-2-Amino-3-cyano-8-methyl-4,4a,5,6,7,8,8a,9-octahydrothieno[3,2-g]quinolin-6-yl]carbonyl}-3-[2-(dimethylamino)ethyl]-1-propylurea Monosuccinate Salt]
chemical stability (in words) [1]: chemically stable | Increased Amount of related substance [1]: −0.05% | Appearance ([1]; Monosuccinate Salt): almost no change in appearance | Appearance [1, 4]: White (A slight coloration | Change of Crystal form ([1]; Monosuccinate Salt): No change in crystal form | Change of Crystal form [1, 4]: No change | chemical stability (in words) [2]: chemically stable | Increased Amount of related substance [2]: No increase | Appearance ([2]; Monosuccinate Salt): no change in appearance; also recorded: No change in white | Change of Crystal form ([2]; Monosuccinate Salt): No change in crystal form
